Results as given in patent US10870638B2, “Pyridazinone compound or its salt, and herbicide containing it” (ISHIHARA SANGYO KAISHA, LTD., priority 2016, dated 2020).

Key:
Assay in all cases: Test Example 1: foliar treatment, growth inhibition rate on 14th day
Type in all cases: in vivo
Conditions in all cases: active ingredient amount 31 g/ha, 14th day after application
[1] = system: corn (Zea mays L.)
Source text: (§1) Upland field soil was put into a 1/300,000 hectare pot, and seeds of various plants were sown. When the respective plants reached predetermined leaf stage ((1) barnyardgrass (Echinochloa crus-[…].): 0.5 to 2.9 leaf stage, (2) crabgrass (Digitaria sanquinalis L.): 0.5 to 3.0 leaf stage, (3) green foxtail (Setaria viridis L.): 0.5 to 3.2 leaf stage, (4) wild oat (Avena fatua L.): 0.4 to 1.2 leaf stage, (5) italian ryegrass (Lolium multiflorum Lam.): 0.4 to 2.0 leaf stage, (6) redroot pigweed (Amaranthus retroflexus L.): cotyledon stage to 2.2 leaf stage, (7) rice (Oryza sativa L.): 0.2 to 2.7 leaf stage, (8) corn (Zea mays L.): 1.7 to 3.6 leaf stage, (9) wheat (Triticum aestivum L.): 1.3 to 2.3 leaf stage, (10) soybean (Glycine max Merr.); primary leaf stage), wettable powders or emulsifiable concentrates of the compounds of the present invention prepared in accordance with a conventional preparation method, were weighed so as to achieve the prescribed active ingredient amounts, and diluted with water in an amount corresponding to 1,000 liters per 1 hectare (containing 0.1 vol % of an agricultural spreader (surfactant WK manufactured by MARUWA BIOCHEMICAL Co., Ltd.)), and the spray solutions thus prepared were applied for foliar treatment by a small sprayer. On the 14th day after the application, the state of growth of the respective plants was visually observed, and the herbicidal effect was evaluated by a growth inhibition rate (%) of 0 (equivalent to the non-treated area) to 100 (complete kill).

[2] = system: barnyardgrass (Echinochloa crus-qalli L.)
Source text: as §1

[3] = system: wild oat (Avena fatua L.)
Source text: as §1

[4] = system: green foxtail (Setaria viridis L.)
Source text: as §1

[5] = system: wheat (Triticum aestivum L.)
Source text: as §1

[6] = system: rice (Oryza sativa L.)
Source text: as §1

[7] = system: redroot pigweed (Amaranthus retroflexus L.)
Source text: as §1

[8] = system: soybean (Glycine max Merr.)
Source text: as §1

[9] = system: italian ryegrass (Lolium multiflorum Lam.)
Source text: as §1

[10] = system: crabgrass (Digitaria sanquinalis L.)
Source text: as §1

SMILES | Growth inhibition rate (%) Corn [1] | Growth inhibition rate (%) Barnyardgrass [2] | Growth inhibition rate (%) Wild oat [3] | Growth inhibition rate (%) Green foxtail [4] | Growth inhibition rate (%) Wheat [5] | Growth inhibition rate (%) Rice [6] | Growth inhibition rate (%) Redroot pigweed [7] | Growth inhibition rate (%) Soybean [8] | Growth inhibition rate (%) Italian ryegrass [9] | Growth inhibition rate (%) Crabgrass [10]
Cc1ccc(Oc2nc3cc(Cl)ccc3o2)cc1-c1c(O)c(C)nn(C)c1=O [Compound 2-105] | 65% | 90% | 75% | 90% | 25% | 35% | 0% | 25% | 80% | 95%
CC(=O)Oc1c(C)nn(C)c(=O)c1-c1cc(Oc2ccc(C(F)(F)F)cc2Cl)ccc1C [Compound 2-114] | 75% | 98% | 83% | 80% | 25% | 10% | 0% | 0% | 80% | 10%
CC(=O)Oc1c(C)nn(C)c(=O)c1-c1cc(Oc2ncc(C(F)(F)F)cc2Br)ccc1C [Compound 2-115] | 98% | 100% | 100% | 98% | 83% | 78% | 20% | 0% | 98% | 95%
CC(=O)Oc1c(C)nn(C)c(=O)c1-c1cc(Oc2ccc(C(F)(F)F)cc2)ccc1C [Compound 2-118] | 20% | 85% | 88% | 60% | 50% | 80% | 0% | 10% | 70% | 40%
CCc1nn(C)c(=O)c(-c2cc(Oc3nc4ccc(Cl)cc4o3)ccc2C)c1OC(C)=O [Compound 2-122] | 85% | 100% | 60% | 95% | 60% | 0% | 0% | 40% | 75% | 90%
CC(=O)Oc1c(C)nn(C)c(=O)c1-c1cc(Oc2ncc3cc(Br)ccc3n2)ccc1C [Compound 2-123] | 0% | 90% | 10% | 83% | 90% | 50% | 0% | 0% | 0% | 10%
